Read-outs that look alike come from different tables or passages of the source.
Tests used:
[1] = test system: P. falciparum Dd2 (PfLuc) line expressing firefly luciferase, asexual blood stage; assay: microbe, parasite or virus in culture; assay type: cell-based, Plasmodium falciparum; settings: for IC50 / Emax: Plasmodium falciparum
P. falciparum Dd2 = assay: SYBR green I asexual blood stage proliferation assay (96 h); assay type: cell-based, Plasmodium falciparum; settings: for IC50 / Emax: Plasmodium falciparum
[2] = DD2, read-out: CDD P. falciparum Luciferase ABS 11-pt Reconfirmation Dose Response (48hr): IC50 (μM), 11-pt dose response, 48hr
[3] = DD2, 8-pt dose response, 96hr, read-out: CDD P. falciparum Luciferase ABS 8-pt Reconfirmation Dose Response (96hr): IC50
[4] = DD2, 8-pt dose response, 96hr, read-out: CDD P. falciparum Luciferase ABS 8-pt Reconfirmation Dose Response (96hr): Maximum inhibition (%)
[5] = DD2, 11-pt dose response, 48hr, read-out: CDD P. falciparum Luciferase ABS 11-pt Reconfirmation Dose Response (48hr): Maximum inhibition (%)
[6] = DD2, 11-pt dose response, 96hr, read-out: CDD P. falciparum Luciferase ABS 11-pt Reconfirmation Dose Response (96hr): IC50
[7] = DD2, 11-pt dose response, 96hr, read-out: CDD P. falciparum Luciferase ABS 11-pt Reconfirmation Dose Response (96hr): Maximum inhibition (%)
[8] = DD2, Sybr Green I, 11-pt dose response, 96hr, read-out: CDD P. falciparum Sybr Green I ABS 11-pt Reconfirmation Dose Response (96hr): IC50
[9] = DD2, Sybr Green I, 11-pt dose response, 96hr, read-out: CDD P. falciparum Sybr Green I ABS 11-pt Reconfirmation Dose Response (96hr): Maximum inhibition (%)
[10] = DD2, read-out: P. falciparum Luciferase ABS 11-pt Reconfirmation Dose Response (48hr): IC50, 11-pt dose response, 48hr
[11] = DD2, 8-pt dose response, 96hr, read-out: P. falciparum Luciferase ABS 8-pt Reconfirmation Dose Response (96hr): IC50
[12] = DD2, 8-pt dose response, 96hr, read-out: P. falciparum Luciferase ABS 8-pt Reconfirmation Dose Response (96hr): Maximum inhibition (%)
[13] = DD2, 11-pt dose response, 48hr, read-out: P. falciparum Luciferase ABS 11-pt Reconfirmation Dose Response (48hr): Maximum inhibition (%)
[14] = DD2, 11-pt dose response, 96hr, read-out: P. falciparum Luciferase ABS 11-pt Reconfirmation Dose Response (96hr): IC50
[15] = DD2, 11-pt dose response, 96hr, read-out: P. falciparum Luciferase ABS 11-pt Reconfirmation Dose Response (96hr): Maximum inhibition (%)
[16] = DD2, 11-pt dose response, 96hr, read-out: P. falciparum Sybr Green I ABS 11-pt Reconfirmation Dose Response (96hr): IC50
[17] = DD2, 11-pt dose response, 96hr, read-out: P. falciparum Sybr Green I ABS 11-pt Reconfirmation Dose Response (96hr): Maximum inhibition (%)

## CCOc1ccc(Br)cc1C1CCCCN1 (stereo not drawn) [DDD01034784]
[1]; [2]
  IC50: > 12.5 µM
[1]; [3]
  IC50: 0.81 µM
[1]; [4]
  Emax: 86.8%
[1]; [5]
  Emax: 60%
[1]; [6]
  IC50: > 1.39 µM
[1]; [7]
  Emax: 90.9%
P. falciparum Dd2; [8]
  IC50: 2780 nM
P. falciparum Dd2; [9]
  Emax: 65.2%

## CCOc1ccc(Br)cc1C1CCCN1 (stereo not drawn) [DDD01034787]
[1]; [2]
  IC50: 4.88 µM
[1]; [3]
  IC50: 0.85 µM
[1]; [4]
  Emax: 85.8%
[1]; [5]
  Emax: 59.1%
[1]; [6]
  IC50: 1.38 µM
[1]; [7]
  Emax: 86.3%
P. falciparum Dd2; [8]
  IC50: 7590 nM
P. falciparum Dd2; [9]
  Emax: 78.7%

## Cc1c(C)n(CC(O)CN2CCN(CCO)CC2)c2c(Cl)cccc12 (stereo not drawn) [DDD01034970]
[1]; [10]
  IC50: 3.79 µM
[1]; [11]
  IC50: 1.15 µM
[1]; [12]
  Emax: 85.4%
[1]; [13]
  Emax: 86.8%
[1]; [14]
  IC50: 2.24 µM
[1]; [15]
  Emax: 95.9%
P. falciparum Dd2; [16]
  IC50: > 4160 nM
P. falciparum Dd2; [17]
  Emax: 73.1%

## CC(N)Cc1ccccc1Sc1ccccc1 (stereo not drawn) [DDD01035540]
[1]; [10]
  IC50: 3.57 µM
[1]; [11]
  IC50: 1.63 µM
[1]; [12]
  Emax: 92%
[1]; [13]
  Emax: 89.6%
[1]; [14]
  IC50: 0.558 µM
[1]; [15]
  Emax: 98.2%
P. falciparum Dd2; [16]
  IC50: 4170 nM
P. falciparum Dd2; [17]
  Emax: 86.1%

## c1ccc(Sc2ccc3c(c2)OCO3)c(CNC2=NCCN2)c1 [DDD01035544]
[1]; [2]
  IC50: 7.86 µM
[1]; [3]
  IC50: 1.05 µM
[1]; [4]
  Emax: 85.5%
[1]; [5]
  Emax: 75%
[1]; [6]
  IC50: 1.67 µM
[1]; [7]
  Emax: 95.1%
P. falciparum Dd2; [8]
  IC50: > 4160 nM
P. falciparum Dd2; [9]
  Emax: 65.9%

## CN(C)[C@@H]1CCN(c2ncccn2)[C@H]1Cc1ccccc1 [DDD01036700]
[1]; [2]
  IC50: > 12.5 µM
[1]; [3]
  IC50: 0.85 µM
[1]; [4]
  Emax: 85.6%
[1]; [5]
  Emax: 47.6%
[1]; [6]
  IC50: 2.4 µM
[1]; [7]
  Emax: 80.9%
P. falciparum Dd2; [8]
  IC50: > 4160 nM
P. falciparum Dd2; [9]
  Emax: 74.7%

## CC(O)c1cccc(Nc2nc(NCCO)c3ccccc3n2)c1 (stereo not drawn) [DDD01037968]
[1]
  activity in ABS screens: active in ABS screens
[1]; [2]
  IC50: 2.9 µM
[1]; [3]
  IC50: 0.29 µM
[1]; [4]
  Emax: 92.4%
[1]; [5]
  Emax: 96.3%
[1]; [6]
  IC50: 0.739 µM
[1]; [7]
  Emax: 99.6%
P. falciparum Dd2; [8]
  IC50: 3130 nM
P. falciparum Dd2; [9]
  Emax: 95.8%

## CCN(CC)CCNS(=O)(=O)c1cccc(CSC)c1 [DDD01038216]
[1]; [2]
  IC50: 10.2 µM
[1]; [3]
  IC50: 0.58 µM
[1]; [4]
  Emax: 87.3%
[1]; [5]
  Emax: 58.8%
[1]; [6]
  IC50: 2.99 µM
[1]; [7]
  Emax: 89.5%
P. falciparum Dd2; [8]
  IC50: 7550 nM
P. falciparum Dd2; [9]
  Emax: 73.7%

## Oc1ccc(Cl)cc1CNCc1ccccc1Cl [DDD01038243]
[1]; [2]
  IC50: > 12.5 µM
[1]; [3]
  IC50: 1.02 µM
[1]; [4]
  Emax: 90.3%
[1]; [5]
  Emax: 59.4%
[1]; [6]
  IC50: 4.2 µM
[1]; [7]
  Emax: 88.4%
P. falciparum Dd2; [8]
  IC50: > 12500 nM
P. falciparum Dd2; [9]
  Emax: 34.6%

## Oc1ccc(Cl)cc1CNCc1cccc(C(F)(F)F)c1 [DDD01038245]
[1]; [2]
  IC50: > 4.16 µM
[1]; [3]
  IC50: 0.82 µM
[1]; [4]
  Emax: 91.9%
[1]; [5]
  Emax: 64%
[1]; [6]
  IC50: 10.6 µM
[1]; [7]
  Emax: 79.2%
P. falciparum Dd2; [8]
  IC50: 3030 nM
P. falciparum Dd2; [9]
  Emax: 95.3%

## Cc1ccccc1CNCc1cc(Cl)ccc1O [DDD01038246]
[1]; [2]
  IC50: 11 µM
[1]; [3]
  IC50: 0.64 µM
[1]; [4]
  Emax: 92.4%
[1]; [5]
  Emax: 69.3%
[1]; [6]
  IC50: 5.6 µM
[1]; [7]
  Emax: 89.5%
P. falciparum Dd2; [8]
  IC50: 2600 nM
P. falciparum Dd2; [9]
  Emax: 97.5%

## COc1cccc(CNCc2ccccc2Cl)c1O [DDD01038247]
[1]; [2]
  IC50: 7.91 µM
[1]; [3]
  IC50: 0.9 µM
[1]; [4]
  Emax: 89.5%
[1]; [5]
  Emax: 79.1%
[1]; [6]
  IC50: 1.97 µM
[1]; [7]
  Emax: 96.2%
P. falciparum Dd2; [8]
  IC50: 5220 nM
P. falciparum Dd2; [9]
  Emax: 87.5%

## COc1cccc(CNCc2cccc(Cl)c2)c1O [DDD01038248]
[1]; [2]
  IC50: 4.63 µM
[1]; [3]
  IC50: 0.99 µM
[1]; [4]
  Emax: 92.4%
[1]; [5]
  Emax: 87.8%
[1]; [6]
  IC50: 1.9 µM
[1]; [7]
  Emax: 98%
P. falciparum Dd2; [8]
  IC50: 2690 nM
P. falciparum Dd2; [9]
  Emax: 92.1%

## COc1cccc(CNCc2ccc(F)cc2Cl)c1O [DDD01038249]
[1]; [2]
  IC50: > 4.16 µM
[1]; [3]
  IC50: 0.94 µM
[1]; [4]
  Emax: 87.2%
[1]; [5]
  Emax: 36%
[1]; [6]
  IC50: 2.78 µM
[1]; [7]
  Emax: 95.4%
P. falciparum Dd2; [8]
  IC50: > 4160 nM
P. falciparum Dd2; [9]
  Emax: 92.8%

## COc1cccc(CNCc2ccc(F)c(Cl)c2)c1O [DDD01038250]
[1]; [2]
  IC50: 3.18 µM
[1]; [3]
  IC50: 0.56 µM
[1]; [4]
  Emax: 93.8%
[1]; [5]
  Emax: 93.8%
[1]; [6]
  IC50: 1.4 µM
[1]; [7]
  Emax: 99.2%
P. falciparum Dd2; [8]
  IC50: 1970 nM
P. falciparum Dd2; [9]
  Emax: 98.2%

## Cc1cccc(NC(=O)c2cccc(OCc3nnnn3C)c2)n1 [DDD01038630]
[1]; [2]
  IC50: 0.916 µM
[1]; [3]
  IC50: 0.34 µM
[1]; [4]
  Emax: 94.9%
[1]; [5]
  Emax: 99.2%
[1]; [6]
  IC50: > 0.462 µM
[1]; [7]
  Emax: 99.5%
P. falciparum Dd2; [8]
  IC50: 2540 nM
P. falciparum Dd2; [9]
  Emax: 99.2%

## CN[C@@H]1CCC[C@@H](Oc2ccccc2Oc2ccc(C)cc2)[C@@H]1O [DDD01056673]
[1]; [2]
  IC50: 1.83 µM
[1]; [3]
  IC50: 0.52 µM
[1]; [4]
  Emax: 96%
[1]; [5]
  Emax: 97%
[1]; [6]
  IC50: 0.625 µM
[1]; [7]
  Emax: 99.7%
P. falciparum Dd2; [8]
  IC50: 2330 nM
P. falciparum Dd2; [9]
  Emax: 99.2%

## c1cnc(N2CCC(c3csc(Nc4cnccn4)n3)CC2)nc1 [DDD01056714, C1CN(CCC1c1csc(Nc2cnccn2)n1)c1ncccn1]
[1]; DD2, read-out: CDD P. falciparum Luc 11pt dose response (96hr, n=2): IC50 (μM), 96hr, 11-point, n=2
  IC50: 0.0286 µM
[1]; DD2, read-out: CDD P. falciparum Luciferase 11pt dose response (48hr, n=2): IC50 (μM), 48hr, 11-point, n=2
  IC50: 0.0592 µM
[1]; DD2, 48hr, 11-point, read-out: CDD P. falciparum Luciferase ABS 11-pt Reconfirmation Dose Response (48hr): Maximum inhibition (%)
  Emax: 82.6%
[1]; DD2, 96hr, 11-point, read-out: CDD P. falciparum Luciferase ABS 11-pt Reconfirmation Dose Response (96hr): Maximum inhibition (%)
  Emax: 94.8%
P. falciparum Dd2; Dd2, 96 h
  CDD P. falciparum Sybr Green I ABS Dd2 Dose Response: Maximum measured (%): 55.9%
P. falciparum Dd2; DD2, 96 h, read-out: CDD P. falciparum Sybr Green I ABS Dd2 Dose Response: IC50
  IC50: > 4160 nM

## CCC(C)(C)n1nnnc1C(c1cccs1)N1CCc2ccccc2C1 (stereo not drawn) [DDD01056726]
[1]; [2]
  IC50: 3.18 µM
[1]; [3]
  IC50: 0.56 µM
[1]; [4]
  Emax: 91.1%
[1]; [5]
  Emax: 71.7%
[1]; [6]
  IC50: 0.803 µM
[1]; [7]
  Emax: 93.7%
P. falciparum Dd2; [8]
  IC50: 4960 nM
P. falciparum Dd2; [9]
  Emax: 79.3%

## Cc1cccc(C)c1Nc1noc2c1CN(C(=O)c1ccnn1C)CC2 [DDD01056796]
[1]; [2]
  IC50: 0.425 µM
[1]; [3]
  IC50: 0.14 µM
[1]; [4]
  Emax: 96.7%
[1]; [5]
  Emax: 98.3%
[1]; [6]
  IC50: 0.328 µM
[1]; [7]
  Emax: 101%
P. falciparum Dd2; [8]
  IC50: 266 nM
P. falciparum Dd2; [9]
  Emax: 96.3%

From paper PMC7155171, “Probing the Open Global Health Chemical Diversity Library for Multistage-Active Starting Points for Next-Generation Antimalarials” (ACS Infectious Diseases, 2020)
